# Laboratory results published in ChEMBL document CHEMBL3632622, “Synthesis and biological evaluation of novel N-phenyl ureidobenzenesulfonate derivatives as potential anticancer agents. Part 2. Modulation of the ring B” (Eur J Med Chem, 2015).
# Activity calls are given as the source filed them. The calls are words filed in the database; no cut-off is given here.
# Experiments:
# M21 [1] = assay: Antiproliferative activity against human M21 cells assessed as growth inhibition incubated for 48 hrs by sulforhodamine B assay; assay type: functional, cell-based; conditions: M21, 48 h
# [2] = Antiproliferative activity against human HT1080 cells assessed as growth inhibition incubated for 48 hrs by sulforhodamine B assay; assay type: functional, cell-based, HT-1080
# HT-29 = assay: Antiproliferative activity against human HT-29 cells assessed as growth inhibition incubated for 48 hrs by sulforhodamine B assay; assay type: functional, cell-based; conditions: HT-29, 48 h
# MCF7 = assay: Antiproliferative activity against human MCF7 cells assessed as growth inhibition incubated for 48 hrs by sulforhodamine B assay; assay type: functional, cell-based; conditions: MCF7, 48 h
# M21 [3] = assay: Cell cycle arrest in human M21 cells assessed as accumulation at subG1 phase at 34 uM after 24 hrs by DAPI staining-based flow cytometry (reference value: 1.5%); assay type: functional
# M21 [4] = assay: Cell cycle arrest in human M21 cells assessed as accumulation at G2/M phase at 34 uM after 24 hrs by DAPI staining-based flow cytometry (reference value: 16%); assay type: functional
# M21 [5] = assay: Cell cycle arrest in human M21 cells assessed as accumulation at S phase at 34 uM after 24 hrs by DAPI staining-based flow cytometry (reference value: 17.4%); assay type: functional
# M21 [6] = assay: Cell cycle arrest in human M21 cells assessed as accumulation at G0/G1 phase at 34 uM after 24 hrs by DAPI staining-based flow cytometry (reference value: 65.1%); assay type: functional
# M21 [7] = assay: Cell cycle arrest in human M21 cells assessed as accumulation at S phase at 13 uM after 24 hrs by DAPI staining-based flow cytometry (reference value: 17.4%); assay type: functional
# M21 [8] = assay: Cell cycle arrest in human M21 cells assessed as accumulation at subG1 phase at 13 uM after 24 hrs by DAPI staining-based flow cytometry (reference value: 1.5%); assay type: functional
# M21 [9] = assay: Cell cycle arrest in human M21 cells assessed as accumulation at G2/M phase at 13 uM after 24 hrs by DAPI staining-based flow cytometry (reference value: 16%); assay type: functional
# M21 [10] = assay: Cell cycle arrest in human M21 cells assessed as accumulation at G0/G1 phase at 13 uM after 24 hrs by DAPI staining-based flow cytometry (reference value: 65.1%); assay type: functional
# M21 [11] = assay: Cell cycle arrest in human M21 cells assessed as accumulation at G2/M phase at 7.6 uM after 24 hrs by DAPI staining-based flow cytometry (reference value: 16%); assay type: functional
# M21 [12] = assay: Cell cycle arrest in human M21 cells assessed as accumulation at subG1 phase at 7.6 uM after 24 hrs by DAPI staining-based flow cytometry (reference value: 1.5%); assay type: functional
# M21 [13] = assay: Cell cycle arrest in human M21 cells assessed as accumulation at G0/G1 phase at 7.6 uM after 24 hrs by DAPI staining-based flow cytometry (reference value: 65.1%); assay type: functional
# M21 [14] = assay: Cell cycle arrest in human M21 cells assessed as accumulation at S phase at 7.6 uM after 24 hrs by DAPI staining-based flow cytometry (reference value: 17.4%); assay type: functional
# M21 [15] = assay: Cell cycle arrest in human M21 cells assessed as accumulation at G0/G1 phase at 4.1 uM after 24 hrs by DAPI staining-based flow cytometry (reference value: 65.1%); assay type: functional
# M21 [16] = assay: Cell cycle arrest in human M21 cells assessed as accumulation at subG1 phase at 4.1 uM after 24 hrs by DAPI staining-based flow cytometry (reference value: 1.5%); assay type: functional
# M21 [17] = assay: Cell cycle arrest in human M21 cells assessed as accumulation at G2/M phase at 4.1 uM after 24 hrs by DAPI staining-based flow cytometry (reference value: 16%); assay type: functional
# M21 [18] = assay: Cell cycle arrest in human M21 cells assessed as accumulation at S phase at 4.1 uM after 24 hrs by DAPI staining-based flow cytometry (reference value: 17.4%); assay type: functional
# M21 [19] = assay: Induction DNA DSBs in human M21 cells assessed as increase in gamma H2AX foci at 4.1 uM incubated for 24 hrs by DAPI staining based immunocytochemistry; assay type: cell-based
# M21 [20] = assay: Cell cycle arrest in human M21 cells assessed as accumulation at S phase at 39 uM after 24 hrs by DAPI staining-based flow cytometry (reference value: 17.4%); assay type: functional
# M21 [21] = assay: Cell cycle arrest in human M21 cells assessed as accumulation at subG1 phase at 39 uM after 24 hrs by DAPI staining-based flow cytometry (reference value: 1.5%); assay type: functional
# M21 [22] = assay: Cell cycle arrest in human M21 cells assessed as accumulation at G2/M phase at 39 uM after 24 hrs by DAPI staining-based flow cytometry (reference value: 16%); assay type: functional
# M21 [23] = assay: Cell cycle arrest in human M21 cells assessed as accumulation at G0/G1 phase at 39 uM after 24 hrs by DAPI staining-based flow cytometry (reference value: 65.1%); assay type: functional
# M21 [24] = assay: Cell cycle arrest in human M21 cells assessed as accumulation at G2/M phase at 8.1 uM after 24 hrs by DAPI staining-based flow cytometry (reference value: 16%); assay type: functional
# M21 [25] = assay: Cell cycle arrest in human M21 cells assessed as accumulation at S phase at 8.1 uM after 24 hrs by DAPI staining-based flow cytometry (reference value: 17.4%); assay type: functional
# M21 [26] = assay: Cell cycle arrest in human M21 cells assessed as accumulation at G0/G1 phase at 8.1 uM after 24 hrs by DAPI staining-based flow cytometry (reference value: 65.1%); assay type: functional
# M21 [27] = assay: Induction DNA DSBs in human M21 cells assessed as increase in gamma H2AX foci at 20 uM incubated for 24 hrs by DAPI staining based immunocytochemistry; assay type: cell-based
# M21 [28] = assay: Cell cycle arrest in human M21 cells assessed as accumulation at subG1 phase at 8.1 uM after 24 hrs by DAPI staining-based flow cytometry (reference value: 1.5%); assay type: functional
# M21 [29] = assay: Cell cycle arrest in human M21 cells assessed as accumulation at G2/M phase at 1 uM after 24 hrs by DAPI staining-based flow cytometry (reference value: 16%); assay type: functional
# M21 [30] = assay: Induction DNA DSBs in human M21 cells assessed as increase in gamma H2AX foci at 1 uM incubated for 24 hrs by DAPI staining based immunocytochemistry; assay type: cell-based
# M21 [31] = assay: Cell cycle arrest in human M21 cells assessed as accumulation at subG1 phase at 1 uM after 24 hrs by DAPI staining-based flow cytometry (reference value: 1.5%); assay type: functional
# M21 [32] = assay: Cell cycle arrest in human M21 cells assessed as accumulation at S phase at 1 uM after 24 hrs by DAPI staining-based flow cytometry (reference value: 17.4%); assay type: functional
# M21 [33] = assay: Cell cycle arrest in human M21 cells assessed as accumulation at G0/G1 phase at 1 uM after 24 hrs by DAPI staining-based flow cytometry (reference value: 65.1%); assay type: functional
# [34] = Homo sapiens, HT-1080, 48 h, read-out: IC50
Structure (SMILES),IC50 (M21 [1]) [µM],"IC50 [2, 34] [µM]",IC50 (HT-29) [µM],IC50 (MCF7) [µM],also measured
Cc1ccc(OS(=O)(=O)c2ccc(NC(=O)NCCCl)cc2)cc1,17,12,20,19,
O=C(NCCCl)Nc1ccc(S(=O)(=O)Oc2ccc(Cl)cc2)cc1,6,5.9,6.3,7.3,Activity (M21 [3]): 8.6%; Activity (M21 [4]): 65.8%; Activity (M21 [5]): 6.6%; Activity (M21 [6]): 19%
O=C(NCCCl)Nc1ccc(S(=O)(=O)Oc2cccc(Br)c2)cc1,2.2,2,2.1,2.6,Activity (M21 [7]): 1.6%; Activity (M21 [8]): 4.4%; Activity (M21 [9]): 92.4%; Activity (M21 [10]): 1.6%
Cc1ccc(C)c(OS(=O)(=O)c2ccc(NC(=O)NCCCl)cc2)c1,1.5,1.7,1.5,1.9,Activity (M21 [11]): 75.4%; Activity (M21 [12]): 5.5%; Activity (M21 [13]): 7.2%; Activity (M21 [14]): 11.9%
CC(C)(C)c1ccc(OS(=O)(=O)c2ccc(NC(=O)NCCCl)cc2)cc1,18,6.8,15,17,
CN(C)c1ccc(OS(=O)(=O)c2ccc(NC(=O)NCCCl)cc2)cc1,,,,,IC50 ([2]; ht-1080): Not Active
O=C(NCCCl)Nc1ccc(S(=O)(=O)Oc2cc(F)c(F)c(F)c2)cc1,11.3,9.8,9.9,11.3,
O=C(NCCCl)Nc1ccc(S(=O)(=O)Oc2cccc([N+](=O)[O-])c2)cc1,17,10,17,18,
Cc1cc(C)cc(OS(=O)(=O)c2ccc(NC(=O)NCCCl)cc2)c1,1.7,2.4,1.8,2.9,
O=C(NCCCl)Nc1ccc(S(=O)(=O)Oc2ccc(F)cc2)cc1,12,11,12,14,
CCc1ccc(OS(=O)(=O)c2ccc(NC(=O)NCCCl)cc2)cc1,16,9.8,15,16,
N#Cc1ccc(OS(=O)(=O)c2ccc(NC(=O)NCCCl)cc2)cc1,19,14,18,19,
Cc1ccc(OS(=O)(=O)c2ccc(NC(=O)NCCCl)cc2)c(C)c1,2.1,1.3,3.6,3.9,Activity (M21 [15]): 28.4%; Activity (M21 [16]): 1.4%; Activity (M21 [17]): 23.8%; Activity (M21 [18]): 46.4%; Activity (M21 [19]): Active
O=C(NCCCl)Nc1ccc(S(=O)(=O)Oc2cccc(Cl)c2)cc1,2.6,2.6,2.8,3.7,Activity (M21 [7]): 7%; Activity (M21 [8]): 5.2%; Activity (M21 [9]): 80.6%; Activity (M21 [10]): 7.2%
CCc1ccccc1OS(=O)(=O)c1ccc(NC(=O)NCCCl)cc1,2.1,1.2,3.3,4.1,Activity (M21 [15]): 34.7%; Activity (M21 [16]): 2%; Activity (M21 [17]): 19.2%; Activity (M21 [18]): 44.1%
Cc1cc(OS(=O)(=O)c2ccc(NC(=O)NCCCl)cc2)cc(C)c1C,6.5,9,6.6,9.4,Activity (M21 [20]): 14.8%; Activity (M21 [21]): 8.7%; Activity (M21 [22]): 65.1%; Activity (M21 [23]): 11.4%

Structure (SMILES),IC50 (M21 [1]) [µM],"IC50 [2, 34] [µM]",IC50 (HT-29) [µM],IC50 (MCF7) [µM],also measured
Cc1cccc(OS(=O)(=O)c2ccc(NC(=O)NCCCl)cc2)c1,6.2,5.8,6,7.2,
O=C(NCCCl)Nc1ccc(S(=O)(=O)Oc2ccccc2F)cc1,4,3.2,5.4,6,Activity (M21 [24]): 34.6%; Activity (M21 [25]): 37.6%; Activity (M21 [26]): 25.2%; Activity (M21 [27]): Active; Activity (M21 [28]): 2.6%
CC(C)c1ccccc1OS(=O)(=O)c1ccc(NC(=O)NCCCl)cc1,1.5,0.84,1.5,1.8,Activity (M21 [29]): 23.4%; Activity (M21 [30]): Active; Activity (M21 [31]): 1.2%; Activity (M21 [32]): 51.8%; Activity (M21 [33]): 23.6%
O=C(NCCCl)Nc1ccc(S(=O)(=O)Oc2ccccc2)cc1,16,8.8,17,19,
O=C(NCCCl)Nc1ccc(S(=O)(=O)Oc2cccc(I)c2)cc1,1.2,1.4,1.3,1.8,Activity (M21 [11]): 89.5%; Activity (M21 [12]): 3.6%; Activity (M21 [13]): 2%; Activity (M21 [14]): 4.9%
O=C(NCCCl)Nc1ccc(S(=O)(=O)Oc2cccc(F)c2)cc1,5.3,4.5,5.5,7.8,Activity (M21 [3]): 6.2%; Activity (M21 [4]): 86.9%; Activity (M21 [5]): 4.4%; Activity (M21 [6]): 2.5%
O=C(NCCCl)Nc1ccc(S(=O)(=O)Oc2ccccc2I)cc1,1.9,1.2,1.5,1.51,Activity (M21 [29]): 15%; Activity (M21 [30]): Active; Activity (M21 [31]): 1.7%; Activity (M21 [32]): 46.9%; Activity (M21 [33]): 36.4%
COc1ccc(OS(=O)(=O)c2ccc(NC(=O)NCCCl)cc2)cc1,17,15,22,23,
COc1ccc(OS(=O)(=O)c2ccc(NC(=O)NCCCl)cc2)cc1OC,12,11,13,15,
O=C(NCCCl)Nc1ccc(S(=O)(=O)Oc2ccc(O)cc2)cc1,,,,,IC50 ([2]; ht-1080): Not Active
COc1ccccc1OS(=O)(=O)c1ccc(NC(=O)NCCCl)cc1,15,8.3,13,19,
CCc1cccc(OS(=O)(=O)c2ccc(NC(=O)NCCCl)cc2)c1,6,3.8,5.6,7.1,Activity (M21 [20]): 11.3%; Activity (M21 [21]): 5%; Activity (M21 [22]): 68.5%; Activity (M21 [23]): 15.2%
CCNC(=O)Nc1ccc(S(=O)(=O)Oc2ccccc2CC)cc1,,0.36,,,
CCCc1ccc(OS(=O)(=O)c2ccc(NC(=O)NCCCl)cc2)cc1,12,5.2,11,13,
O=C(NCCCl)Nc1ccc(S(=O)(=O)Oc2ccc(I)cc2)cc1,11,8.7,9.5,11,
